Legend:
Format in all cases: cell-based, human
T47-D cells [1] = assay: Fluorescence microscopy, PI/Hoechst 3342 staining; details: 20 µM, 24, 48 and 72 h, vs negative and positive controls
Procedure: To access the effects of the compound 3g in T47-D cells, fluorescence microscopy assays with Hoechst 3342 and PI staining were performed. T47-D cells were seeded at 2 × 10^4 cells/mL in a 24-well culture plate containing circular coverslips of 10 mm diameter, in a complete culture medium. After 48 h, cells were incubated during 24, 48 and 72 h, with 5-FU at 20 µM, as the positive control, steroid 3g at 20 µM, and untreated cells were used as a negative control. Then, cells were incubated with 20 µL/per well of a solution of PI in PBS at 1 mg/mL for 25 min at 37 °C. The medium was removed, and the cells were fixed with formalin 4% for 15 min at room temperature. Cells were washed three times with PBS and then they were incubated with 30 µL/per coverslip of Hoechst 33,342 (1:500) for 10 min. After incubation, cells were washed three times with PBS. Coverslips were mounted on a drop of permanent mounting medium (Dako) on a microscope slide and visualized in a Zeiss Axio Imager A1 microscope with the 40 × objective. The PI/Hoechst 3342 ratio was calculated by dividing PI-positive cells by Hoechst 3342-positive cells and, then the values were normalized.

[2] = test system: caspase-9 activity in T47-D cells; assay: Caspase-Glo 9 caspase-9 activity assay; details: 48 h, DOX 10 µM, 3g 10 and 20 µM, relative to untreated cells
Procedure: Promega Caspase-Glo 9 assay (Promega, Madison, WI, USA) was employed to evaluate the caspase-9 activity. T47-D cells were seeded in a 96 multiwell plate at a density of 4 × 10^4 cells/mL. After 48 h, cells were treated with the positive control, DOX, at 10 μM and with 10 and 20 μM of 3g, during 48 h. The assay was performed at the end of treatment, following the instructions provided by the manufacturer. Data are representative of at least two experiments (n = 4 in each).

T47-D cells [3] = assay: Cell nuclear morphology and distribution analysis with ImageJ
Excerpt: The nuclear measurements were achieved by converting 16-bit photomicrographs of Hoechst 3342-stained nuclei, in different conditions, into 8-bit images and then these images were autothresholded to binary photos using the default method “Make binary” function of ImageJ v 1.49. Cell nuclei that are touching were separated and fragments were discarded based on the area through the “Analyze Particle” function. This function also provides several information pretended as nuclear area, circumference and form factor [33]. In addition, the “Nearest Neighbor Distance” was determined. This function allows measuring the distance between each cell nucleus and the nearest ones.

LNCaP cells = assay: Microscopic cell morphology observation; details: 24 and 72 h of treatment
Procedure: In our previous work, 16E-arylidene-4-azaandrost-5-ene derivatives were synthesized, their antiproliferative effects were evaluated and further studies were performed with the most promising steroid in LNCaP cells. Due to the similarity of 16E-arylidene-4-azaandrostenes and these novel 21E-arylidene-4-azapregnene derivatives, identical studies in this cell line were performed, namely a flow cytometry assay and microscopic cell morphology observation. To assess the viability of LNCaP cells when exposed to steroid 3g, a flow cytometry assay after PI staining was performed. Cells were treated with 3g and 5-FU during 24 and 72 h, and then a microscopic cell observation was performed to assess the possible morphological alterations and cell density changes triggered by incubation with 3g and compare with controls (Figure 6).
Similar to the previous study, the analysis of cell viability was accomplished by flow cytometry after staining dead cells with propidium iodide (PI; Invitrogen, Carlsbad, USA). Succinctly, 1 mL of a cell suspension was seeded in 12-well culture plates (initial cell density of 5 × 10^4 cells/mL of LNCaP cells for 24 h assay and 2 × 10^4 cells/mL of the same cell line for 72 h assay) in a complete culture medium. […] The percentages of each region were calculated for a total of R1 + R2 + R3. […]

Q: Which results are given for `C[C@]12CC[C@H]3[C@@H](CC=C4NC(=O)CC[C@@]43C)[C@@H]1CC[C@@H]2C(=O)/C=C/c1cccnc1` [Compound 3g, 21E-[(Pyridin-3-yl)methylidene]-4-azapregn-5-ene-3,20-dione]?
A: Ratio of PI/Hoechst 3342 staining (T47-D cells [1]): higher ratio of PI/Hoechst 3342 staining; Caspase-9 activity [2]: significant elevation in caspase-9 activity; Nuclear area (T47-D cells [3]; 20 µM, 24, 48 and 72 h, vs control): significant decrease in the nuclear area; Nearest neighbor distance (NND) of cell nuclei (T47-D cells [3]; 20 µM, 48 and 72 h): different distances; Cell morphology and cell density (LNCaP cells): detached, forming clusters and presenting a round form
